Experiment [1] concerns the target T1, panel of 442 kinases (Homo sapiens, UniProt Q96BR1).
T1 construct: purchased KINOMEscan
T1 sequence (Q96BR1 1-496): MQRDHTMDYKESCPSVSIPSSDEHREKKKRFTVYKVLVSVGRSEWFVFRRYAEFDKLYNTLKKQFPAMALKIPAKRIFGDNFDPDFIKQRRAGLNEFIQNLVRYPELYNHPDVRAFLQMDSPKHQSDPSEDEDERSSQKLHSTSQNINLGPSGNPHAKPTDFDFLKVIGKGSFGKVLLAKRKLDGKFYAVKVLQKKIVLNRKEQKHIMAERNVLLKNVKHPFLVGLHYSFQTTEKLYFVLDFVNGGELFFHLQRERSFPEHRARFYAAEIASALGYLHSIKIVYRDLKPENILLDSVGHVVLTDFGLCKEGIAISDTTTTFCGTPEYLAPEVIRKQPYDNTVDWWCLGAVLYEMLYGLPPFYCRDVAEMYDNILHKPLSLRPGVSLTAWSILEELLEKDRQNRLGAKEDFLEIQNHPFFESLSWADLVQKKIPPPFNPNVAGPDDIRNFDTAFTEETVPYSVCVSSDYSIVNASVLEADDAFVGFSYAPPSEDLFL
The class given is binding. The following applies: kinase SGK3; compound concentration 10 µM. From the text: (§1) We assessed the selectivity of members of this scaffold using the KINOMEscan methodology across a near comprehensive panel of 442 kinases [[18,27]].

In experiment [2] the target is T2, panel of 442 kinases (Homo sapiens, UniProt Q9H422).
T2 construct: purchased KINOMEscan
T2 sequence (Q9H422 whole entry): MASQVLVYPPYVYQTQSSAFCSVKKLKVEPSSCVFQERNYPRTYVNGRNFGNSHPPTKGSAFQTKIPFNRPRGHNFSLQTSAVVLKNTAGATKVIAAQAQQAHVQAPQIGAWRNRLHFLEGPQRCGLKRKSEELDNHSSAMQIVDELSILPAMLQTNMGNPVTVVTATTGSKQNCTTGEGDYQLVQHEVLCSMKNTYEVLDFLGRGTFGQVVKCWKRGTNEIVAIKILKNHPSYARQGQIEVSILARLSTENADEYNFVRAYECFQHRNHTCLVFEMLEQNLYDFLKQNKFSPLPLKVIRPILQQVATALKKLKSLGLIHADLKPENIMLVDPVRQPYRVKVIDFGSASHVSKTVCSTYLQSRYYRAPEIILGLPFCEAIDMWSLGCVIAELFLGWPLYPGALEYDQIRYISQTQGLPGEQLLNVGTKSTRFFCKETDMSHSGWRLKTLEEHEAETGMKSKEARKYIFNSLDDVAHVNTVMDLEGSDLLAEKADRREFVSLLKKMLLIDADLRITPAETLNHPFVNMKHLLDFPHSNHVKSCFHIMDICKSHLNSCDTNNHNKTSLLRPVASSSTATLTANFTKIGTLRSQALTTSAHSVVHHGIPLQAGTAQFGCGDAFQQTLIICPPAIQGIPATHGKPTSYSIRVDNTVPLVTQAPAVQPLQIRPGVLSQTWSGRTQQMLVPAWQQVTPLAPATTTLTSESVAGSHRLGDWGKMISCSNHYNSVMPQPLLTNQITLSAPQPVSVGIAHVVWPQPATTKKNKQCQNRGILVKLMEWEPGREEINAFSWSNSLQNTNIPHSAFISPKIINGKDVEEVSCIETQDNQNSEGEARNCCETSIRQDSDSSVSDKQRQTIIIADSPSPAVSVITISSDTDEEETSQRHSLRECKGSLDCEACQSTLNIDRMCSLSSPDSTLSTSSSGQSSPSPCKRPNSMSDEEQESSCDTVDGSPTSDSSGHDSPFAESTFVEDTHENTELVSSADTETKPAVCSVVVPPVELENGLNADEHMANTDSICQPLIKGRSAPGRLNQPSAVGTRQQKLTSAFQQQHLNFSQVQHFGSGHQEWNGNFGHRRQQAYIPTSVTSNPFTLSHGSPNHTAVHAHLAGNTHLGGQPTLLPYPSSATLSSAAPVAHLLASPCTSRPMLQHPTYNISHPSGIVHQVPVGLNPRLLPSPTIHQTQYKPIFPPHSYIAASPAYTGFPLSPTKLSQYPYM
The class given is binding. Particulars: Compound Concentration 10 µM.
Source text: as §1

Four molecules from publication PMC3914206 can be followed below.

As to `CCOc1cc(C(=O)N2CCC(N3CCN(C)CC3)CC2)ccc1Nc1ncc2c(n1)N(C1CCCC1)c1ccccc1C(=O)N2C` [Compound 26], on panel of 442 kinases [1], the “% Ctrl, SGK3” value stood at 83 % Ctrl. Besides, the “KINOMEscan: HIPK3” value on panel of 442 kinases [2] was determined as 92.

Consider `COc1cc(C(=O)N2CCC(N3CCN(C)CC3)CC2)ccc1Nc1ncc2c(n1)N1CCc3cccc(c31)C(=O)N2C` [Compound 24], for which the “% Ctrl, SGK3” value at panel of 442 kinases [1] is reported as 100 % Ctrl. Besides, the “KINOMEscan: HIPK3” value at panel of 442 kinases [2] was 48.

For the molecule `COc1cc(C(=O)N2CCC(N3CCN(C)CC3)CC2)ccc1Nc1ncc2c(n1)N(C)c1ccccc1C(=O)N2C` [15 (LRRK2-IN-1)], the “% Ctrl, SGK3” value on panel of 442 kinases [1] is reported as 95 % Ctrl. Moreover, the “KINOMEscan: HIPK3” value on panel of 442 kinases [2] is 89.

In the case of `COc1cc(C(=O)N2CCC(N3CCN(C)CC3)CC2)ccc1Nc1ncc2c(n1)N(C1CCCC1)c1ccccc1C(=O)N2C` [Compound 25, 11-cyclopentyl-2-((2-methoxy-4-(4-(4-methylpiperazin-1-yl)piperidine-1-carbonyl)phenyl)amino)-5-methyl-5H-benzo[e]pyrimido[5,4-b][1,4]diazepin-6(11H)-one], the “% Ctrl, SGK3” value on panel of 442 kinases [1] came to 100 % Ctrl. Also, the “KINOMEscan: HIPK3” value at panel of 442 kinases [2] amounted to 100.
